# Values quoted from earlier work as cited in US20080318986A1, “Ddc Compositions” (priority 2005, published 2008).
# Tested on: adenoviral strains
# Details: literature study; for inhibition of adenoviral strains: Kaneko et al. J. Jpn. Opthalmol. Soc. 107:196-201 (2003)
smiles,measurement,setting,value
Nc1ccn(C[C@@H](CO)OCP(=O)(O)O)c(=O)n1 [HPMPC],inhibition of adenoviral strains,,inhibited adenoviral strains
CCCCCCCCCCCCCCCCCCCCCCOCC(C)(COCCCCCCCCCCCCCCCCCCCCCC)CO[C@]1(C(=O)O)C[C@H](OS(=O)(=O)O)[C@@H](NC(C)=O)[C@H]([C@H](OS(=O)(=O)O)[C@@H](COS(=O)(=O)O)OS(=O)(=O)O)O1 [NMSO3],"EC50 values against adenoviral strains (rank among NMSO3, HPMPC, dDC)","Kaneko et al. 2003, comparison in words only",lowest EC50 values
same,inhibition of adenoviral strains,,inhibited adenoviral strains
"Nc1ccn([C@H]2CC[C@@H](CO)O2)c(=O)n1 [dDC, 2′,3′-Dideoxycytidine]",inhibition of adenoviral strains,,inhibited adenoviral strains
